Consider 2 compounds from patent publication US9249134B2, “Process for preparation of amorphous form of dasatinib” (CADILA HEALTHCARE LIMITED, priority 2013, dated 2016).

The conditions of data set [1]: in water or organic solvents like methanol, ethanol, propanol, isopropanol, butanol; even in the condition of heating; cited from earlier work.
Data set [2] can be described thus: Solid-state stability of prior-art amorphous dasatinib under stability conditions. The class given is physicochemical. Particulars: amorphous dasatinib having higher residual solvents (prior art process), subjected to stability conditions. The protocol:
Therefore, the prior art process provides amorphous dasatinib containing higher amount of residual solvent which is not suitable for pharmaceutical developments.
As used herein, the term “stable dasatinib” includes either: amorphous dasatinib that after exposure to a relative humidity of 75% at 40° C. or 60% at 25° C., for a period of at least three months contains less than about 0.5% (wt/wt) total impurities and doesn't change to crystalline form.

Consider `Cc1nc(Nc2ncc(C(=O)Nc3c(C)cccc3Cl)s2)cc(N2CCN(CCO)CC2)n1` [Dasatinib, N-(2-chloro-6-methylphenyl)-2-[[6-[4-(2-hydroxyethyl)-1-piperazinyl]-2-methyl-4-pyrimidinyl]amino]-5-thiazolecarboxamide], for which the solubility entry in data set [1] was “practically insoluble”. Take `Cc1nc(Nc2ncc(C(=O)Nc3c(C)cccc3Cl)s2)cc(N2CCN(CCO)CC2)n1` [amorphous dasatinib]: the “solid form stability (amorphous to crystalline conversion)” value in data set [2] was “converts to crystalline form”.
